The series in a line: In vitro release from PLG gels into buffer at 37° C. In kind it is physicochemical. The note with it: solution of 5% in 2:1 NMP/TA without PLG, 5 mM PBS buffer (pH 7.4), FIG. 1. As for the experimental part: The samples of gel formulations of the acetate salt of formula (Ia) in PLG and NMP/TA were immersed in 5 mM PBS buffer (pH 7.4) and incubated at 37° C. At a predetermined time, 1 mL of the dissolution medium was withdrawn from the dissolution container, filtered, and assayed for the concentration of the acetate salt of formula (Ia) by HPLC. Fresh PBS buffer (1 mL) was added to replace the withdrawn medium.
The in vitro drug release of the acetate salt of formula (Ib) from the PLG gel formulations (IV) and (V) (from Example 6) was determined by the method described in Example 4.
The in vitro drug release profiles of PLG (24 KD) gel formulations were obtained by the methods described in Example 4.
Formulations of valproate (formulation VI), octanoate (formulation VII), and pivalate (formulation VIII) salts of the compound of formula (Ib) were prepared by substituting the appropriate salts (prepared as described in Example 1b) for the acetate salt in Example 6B. […] In addition, a formulation (formulation IX) that contained 6.0% pivalate salt of formula (Ib), 32.9% PLG (13 KD, 50:50 polymer ratio), 40.4% NMP and 20.7% TA was also prepared. The in vitro drug release profiles of formulations VI, VII, VIII, and IX were obtained by the methods described in Example 4 substituting 50 mM phosphate buffer (pH 7.4) for 5 mM PBS buffer. […]

Where a name gives a salt, the structure may show the parent alone. Where a SMILES comes first, the peptide text is derived from it. [ ]: non-standard residue; d: D form. Nva = CCC[C@H](N)C(=O)O; Sar = CNCC(=O)O

Consider `CCC[C@H](NC(=O)[C@@H](NC(=O)[C@H](NC(=O)[C@@H](NC(=O)CNC(=O)CN(C)C(C)=O)C(C)C)[C@H](C)CC)[C@@H](C)O)C(=O)N[C@H](C(=O)N[C@@H](CCCNC(=N)N)C(=O)N1CCC[C@H]1C(=O)NCC)[C@@H](C)CC` [acetate salt of formula (Ia), N-Ac-Sar-Gly-Val-DIle-Thr-Nva-Ile-Arg-ProNHCH2CH3] (Ac-[Sar]GV[dI]T[Nva]IRP-NHEt), for which the “in vitro release profile” value was “no sustained release”.

Source of the values: patent publication US7432245B2, “Pharmaceutical formulation comprising a peptide angiogenesis inhibitor” (Abbott Laboratories Inc., priority 2002, dated 2008).
